# Counter-ions that a name gives are not always drawn.
# Tested on: HiBiT-HSD17β13 fusion protein (N-terminal HiBiT-tagged HSD17β13 isoform D) in Huh7 HiBiT-HSD17β13 OE cells
# Assay: Whole-cell Huh7-HSD17B13 HiBiT assay (degrader potency and maximal efficacy, luminescence readout)
# Type: cell-based, human
# Details: 24 hour incubation, geometric mean, * = geometric mean for all forms tested (parent and salt forms); for DC50: read-out: Huh7_HIBIT-HSD17β13_DC50 GMean DC50; for Huh7_HIBIT-HSD17β13_DC50 GMean Asymptote Maximum: max. concentration 1 μM
# Description: Degrader potency and maximal efficacy of test compounds were determined using a whole-cell Huh7-HSD17B13 HiBiT assay, utilizing a luminescence readout. A HiBiT tag was fused to the N-terminus of HSD17β13, and therefore the HiBiT luminescence signal produced in the assay was proportional to the level of HiBiT-HSD17β13 fusion protein in a sample.
# A Huh7 HiBiT-HSD17β13 OE cell line was generated using electroporation with an N-terminal HiBiT-tagged HSD17β13 isoform D overexpression plasmid, followed by geneticin selection to produce a stable pool. Clones were created with varying HiBiT signals to optimize HiBiT HSD17 β13 ratios. A clone with similar HSD17β13 expression levels as human primary hepatocytes was selected for the compound screen.
# Greiner 384-well white opaque, flat bottom, tissue culture treated plates (Greiner #781080) were used for both HiBiT and CTG assays. The treated plates were spotted with 25 nL of a compound which had been serial diluted 1 in 3.162 in 100% DMSO for an 11-point concentration response curve, with duplicate points at each concentration. The maximum concentration of the compounds was 1 mM, which was later diluted with cell suspension for a maximum concentration of 1 μM). High percentage effect (HPE) wells and zero percentage effect (ZPE) wells located in columns 1 and 24 were spotted with 25 nL of DMSO (Sigma #D2650) using an ECHO Acoustic Liquid Handler (Labcyte Echo 550 Series). Each plate was performed in duplicate.
# The Huh7 HiBiT-HSD17β13 OE cells were plated on top of a compound or a DMSO control at 3,000 viable cells/well in 25 μL growth media (DMEM (Gibco #10569), 10% FBS HI (Gibco #16140), 1× Pen/Strep (Gibco #15070), 1×MEM Non-Essential Amino Acids (Gibco #11140), and 300 μg/mL Geneticin (Gibco #10131) in columns 2-24 of the plates. Huh7 parental cells were plated using the same parameters in column 1 (HPE) in the same culture medium, excluding Geneticin selection. Cells were incubated overnight with the compounds for 24 hours (with lid) at 37° C. ([…]).
# Each assay was conducted after a 24 hour incubation period. In the HiBiT assay plates, 25 μL of complete Nano-Glo HiBiT Lytic detection system (Promega #PRN3040), consisting of HiBiT Lytic Buffer with the addition of 1:100 LgBiT Protein and 1:50 Substrate, was added to each well. In CTG counter screen plates, 25 μL of Cell Titer-Glo Luminescent Reagent (Promega #G7573) was added to each well. Both plates were centrifuged for 2 minutes at 1000 rpm and incubated at room temperature, in the dark, for 10 minutes. Then Luminescence was read using an EnVision Plate Reader (Perkin Elmer PE2103).
# The raw data from the Envision Plate Reader was expressed as relative luminescence units (RLUs) for each well of the assay plates. Using HPE and ZPE controls, the % effect was calculated for each sample well as follows: Percent effect=[(sample RLU−HPE RLU)\(ZPE RLU−HPE RLU)]*100. The percent effect was plotted versus the compound concentration and a 50% degradation ([…]) was determined using a four-parameter logistic dose response equation. The raw data was analyzed using ABase (IDBS).
SMILES,DC50,Huh7_HIBIT-HSD17β13_DC50 GMean Asymptote Maximum
"Cn1c(=O)n(C2CCC(=O)NC2=O)c2ccc(CCCN3CCn4c(-c5ccc6cn([C@H]7CC[C@H](CNC(=O)c8cc(F)c(O)c(F)c8F)CC7)nc6c5)cnc4C3)cc21 (mixture of isomers) [Example 31, N-{[(1r,4r)-4-{6-[7-(3-{1-[(3RS)-2,6-dioxopiperidin-3-yl]-3-methyl-2-oxo-2,3-dihydro-1H-benzimidazol-5-yl}propyl)-5,6,7,8-tetrahydroimidazo[1,2-a]pyrazin-3-yl]-2H-indazol-2-yl}cyclohexyl]methyl}-2,3,5-trifluoro-4-hydroxybenzamide, trifluoroacetate salt]",990 pM,85%
"Cn1c(=O)n(C2CCC(=O)NC2=O)c2ccc(CCCCNc3ncc(-c4ccc5cn([C@H]6CC[C@H](CNC(=O)c7cc(F)c(O)c(F)c7F)CC6)nc5c4)cn3)cc21 (mixture of isomers) [Example 38, N-{[(1r,4r)-4-(6-{2-[(4-{1-[(3RS)-2,6-dioxopiperidin-3-yl]-3-methyl-2-oxo-2,3-dihydro-1H-benzimidazol-5-yl}butyl)amino]pyrimidin-5-yl}-2H-indazol-2-yl)cyclohexyl]methyl}-2,3,5-trifluoro-4-hydroxybenzamide]",2600 pM,79%
"O=C1CCC(N2Cc3c(OCc4ccc(CN5CCC(CCCOc6ccc(-c7noc([C@]89CC[C@](CNC(=O)c%10cc(F)c(O)c(F)c%10)(CC8)CC9)n7)nn6)CC5)cc4)cccc3C2=O)C(=O)N1 (mixture of isomers) [Example 37, N-({4-[3-(6-{3-[1-({4-[({2-[(3RS)-2,6-dioxopiperidin-3-yl]-1-oxo-2,3-dihydro-1H-isoindol-4-yl}oxy)methyl]phenyl}methyl)piperi-din-4-yl]propoxy}pyridazin-3-yl)-1,2,4-oxadiazol-5-yl]bicyclo[2.2.2]octan-1-yl}methyl)-3,5-difluoro-4-hydroxybenzamide, trifluoroacetate salt]",2000 pM,85%
"Cn1c(=O)n(C2CCC(=O)NC2=O)c2ccc(CCN3CCN(c4ccc(-c5noc([C@]67CC[C@](CNC(=O)c8cc(F)c(O)c(F)c8F)(CC6)CC7)n5)nn4)CC3)cc21 (mixture of isomers) [Example 55, N-{[4-(3-{6-[4-(2-{1-[(3RS)-2,6-dioxopiperidin-3-yl]-3-methyl-2-oxo-2,3-dihydro-1H-benzimidazol-5-yl}ethyl)piperazin-1-yl]pyridazin-3-yl}-1,2,4-oxadiazol-5-yl)bicyclo[2.2.2]octan-1-yl]methyl}-2,3,5-trifluoro-4-hydroxybenzamide, trifluoroacetate salt]",490 pM,82%
"O=C1CCN(c2cnn3cc(CCCN4CCN(c5ncc(-c6ccc7cn([C@H]8CC[C@H](CNC(=O)c9cc(F)c(O)c(F)c9F)CC8)nc7c6)cn5)CC4)ccc23)C(=O)N1 [Example 53, N-{[(1r,4r)-4-{6-[2-(4-{3-[3-(2,4-dioxo-1,3-diazinan-1-yl)pyrazolo[1,5-a]pyridin-6-yl]propyl}piperazin-1-yl)pyrimidin-5-yl]-2H-indazol-2-yl}cyclohexyl]methyl}-2,3,5-trifluoro-4-hydroxybenzamide, trifluoroacetate salt]",780 pM,77%
"Cn1c(=O)n(C2CCC(=O)NC2=O)c2cccc(CN3CCN(c4ccc5cn([C@H]6CC[C@H](CNC(=O)c7cc(F)c(O)c(F)c7F)CC6)nc5c4)CC3)c21 (mixture of isomers) [Example 52, N-{[(1r,4r)-4-{6-[4-({1-[(3RS)-2,6-dioxopiperidin-3-yl]-3-methyl-2-oxo-2,3-dihydro-1H-benzimidazol-4-yl}methyl)piperazin-1-yl]-2H-indazol-2-yl}cyclohexyl]methyl}-2,3,5-trifluoro-4-hydroxybenzamide, trifluoroacetate salt]",1600 pM,80%
"Cn1nc(N2CCC(=O)NC2=O)c2ccc(CCCN3CCN(c4nccc(-c5nc([C@]67CC[C@](CNC(=O)c8cc(F)c(O)c(F)c8F)(CC6)CC7)no5)n4)CC3)cc21 [Example 133, N-[(4-{5-[2-(4-{3-[3-(2,4-dioxo-1,3-diazinan-1-yl)-1-methyl-1H-indazol-6-yl]propyl}piperazin-1-yl)pyrimidin-4-yl]-1,2,4-oxadiazol-3-yl}bicyclo[2.2.2]octan-1-yl)methyl]-2,3,5-trifluoro-4-hydroxybenzamide, trifluoroacetate salt]",2100 pM,73%

# Continued, in another order:
DC50,SMILES,Huh7_HIBIT-HSD17β13_DC50 GMean Asymptote Maximum
230 pM,"Cn1c(=O)n(C2CCC(=O)NC2=O)c2ccc(CCCN3CCc4cc(-c5ccc6cn([C@H]7CC[C@H](CNC(=O)c8cc(F)c(O)c(F)c8F)CC7)nc6c5)ccc4C3)cc21 (mixture of isomers) [Example 34, N-{[(1r,4r)-4-{6-[2-(3-{1-[(3RS)-2,6-dioxopiperidin-3-yl]-3-methyl-2-oxo-2,3-dihydro-1H-benzimidazol-5-yl}propyl)-1,2,3,4-tetrahydroisoquinolin-6-yl]-2H-indazol-2-yl}cyclohexyl]methyl}-2,3,5-trifluoro-4-hydroxybenzamide, trifluoroacetate salt]",81%
1200 pM,"Cc1ccc(C(=O)N2CCC3(CCC(CN4CCN(c5ccc6cn([C@H]7CC[C@H](CNC(=O)c8cc(F)c(O)c(F)c8F)CC7)nc6c5)CC4)CC3)CC2)cc1N1CCC(=O)NC1=O [Example 103, N-{[(1r,4r)-4-{6-[4-({3-[3-(2,4-dioxo-1,3-diazinan-1-yl)-4-methylbenzoyl]-3-azaspiro[5.5]undecan-9-yl}methyl)piperazin-1-yl]-2H-indazol-2-yl}cyclohexyl]methyl}-2,3,5-trifluoro-4-hydroxybenzamide, trifluoroacetate salt]",76%
420 pM,"Cn1c(=O)n(C2CCC(=O)NC2=O)c2ccc(CCCN3Cc4ccc(-c5ccc6c(C7CC7)n([C@H]7CC[C@H](CNC(=O)c8cc(F)c(O)c(F)c8F)CC7)nc6c5)cc4C3)cc21 (mixture of isomers) [Example 129, N-{[(1r,4r)-4-{3-cyclopropyl-6-[2-(3-{1-[(3RS)-2,6-dioxopiperidin-3-yl]-3-methyl-2-oxo-2,3-dihydro-1H-benzimidazol-5-yl}propyl)-2,3-dihydro-1H-isoindol-5-yl]-2H-indazol-2-yl}cyclohexyl]methyl}-2,3,5-trifluoro-4-hydroxybenzamide, trifluoroacetate salt]",83%
570 pM,"Cn1c(=O)n(C2CCC(=O)NC2=O)c2ccc(CC3CCN(c4ncc(-c5ccc6cn([C@H]7CC[C@H](CNC(=O)c8cc(F)c(O)c(F)c8F)CC7)nc6c5)cn4)CC3)cc21 (mixture of isomers) [Example 46, N-{[(1r,4r)-4-(6-{2-[4-({1-[(3RS)-2,6-dioxopiperidin-3-yl]-3-methyl-2-oxo-2,3-dihydro-1H-benzimidazol-5-yl}methyl)piperidin-1-yl]pyrimidin-5-yl}-2H-indazol-2-yl)cyclohexyl]methyl}-2,3,5-trifluoro-4-hydroxybenzamide, trifluoroacetate salt]",84%
290 pM,"Cn1c(=O)n(C2CCC(=O)NC2=O)c2ccc(CCN3CCN(c4ncc(-c5ccc6cn([C@H]7CC[C@H](CNC(=O)c8cc(F)c(O)c(F)c8F)CC7)nc6c5)cn4)CC3)cc21 (mixture of isomers) [Example 43, N-{[(1r,4r)-4-(6-{2-[4-(2-{1-[(3RS)-2,6-dioxopiperidin-3-yl]-3-methyl-2-oxo-2,3-dihydro-1H-benzimidazol-5-yl}ethyl)piperazin-1-yl]pyrimidin-5-yl}-2H-indazol-2-yl)cyclohexyl]methyl}-2,3,5-trifluoro-4-hydroxybenzamide, trifluoroacetate salt]",83%
